# Columns and labels:
# [1] = test system: patients diagnosed with male erectile dysfunction with no major organic component; test: Multi-center, double-blind, randomized, placebo-controlled study: duration of erection and time to erection; assay type: in vivo, human; conditions: for Duration of Erection, Difference in Means: all attempts; for Time to Erection, Kaplan-Meier Median: all attempts (60 minutes if no erection); for Time to Erection, Kaplan-Meier Estimation of Median Time to Erection (Treatment Means): attempts when erection occurred, first eight attempts
# Method: A multi-center, double-blind, randomized, placebo-controlled, three-armed study was conducted on 370 patients diagnosed with male erectile dysfunction with no major organic component. For each sequence, patients received placebo in one of the treatment periods, and a dose (2 mg, 4 mg, or 6 mg) of apomorphine in the other treatment period.
# During treatment periods of the study, patients and their sexual partners were instructed to attempt intercourse a minimum of twice weekly. Each time the study drug was taken, a questionnaire was completed by the patient and by the partner and mailed to the study sponsor. The questionnaire recorded the date and time the study drug was taken, an evaluation of the erection, whether or not sexual intercourse had occurred, and satisfaction associated with each attempt. The patient also completed a diary which recorded the latency and duration of erections associated with the use of the study drug and antiemetic and concomitant medication usage and any adverse effects. If an erection occurred after administration to the patient of the study drug, the duration of erection and time-to-erection were recorded in the patient diary.
# The data in Table 2 also indicate a dose-dependent, statistically significant difference of duration of erection, with a difference of almost 5 minutes between patients taking the 6 mg dose and those receiving placebo.
# In those cases where no erection was achieved, a value of 60 minutes time-to-erection was used in the statistical analysis. The data in Table 3 show differences in latency periods between patients receiving apomorphine and those receiving placebo, but the differences probably reflect the inclusion in the data of 60 minute values for those cases in which no erection was achieved.
# [2] = test system: female rats; test: Studies with female rats: sexual arousal behaviors; assay type: in vivo, rat; conditions: female rats treated with combination of apomorphine and low doses of testosterone
# Source text: When co-administration of an androgen is utilized in this method of the invention, the androgen is given is doses sufficient to produce plasma concentrations of about 1 nmol/L to 200 nmol/L.
# [3] = Pharmacokinetic evaluation of apomorphine (FIG. 1, mean plasma concentrations after sub-cutaneous and sublingual doses)
smiles,measurement,setting,value
"CN1CCc2cccc3c2[C@H]1Cc1ccc(O)c(O)c1-3 [Apomorphine, (R)-5,6,6a,7-tetrahydro-6-methyl-(4H)-dibenzo[de,g]quinoline-10,11-diol]","Duration of Erection, Difference in Means",[1]; 2 mg apomorphine vs placebo,1.936 min
same,"Duration of Erection, Difference in Mean","[1]; 2 mg apomorphine vs placebo, only attempts where erection was achieved",1.811 min
same,"Duration of Erection, Mean","[1]; 2 mg apomorphine, sublingual, all attempts (zero minutes if no erection)",5.020 min
same,"Time to Erection, Kaplan-Meier Median",[1]; 2 mg apomorphine,42.17 min
same,"Time to Erection, Kaplan-Meier Estimation of Median Time to Erection (Treatment Means)",[1]; 2 mg apomorphine,11.33 min
same,"Duration of Erection, Mean","[1]; 2 mg apomorphine, only attempts where erection was achieved",10.82 min
same,"Duration of Erection, Difference in Means",[1]; 4 mg apomorphine vs placebo,3.578 min
same,"Duration of Erection, Difference in Mean","[1]; 4 mg apomorphine vs placebo, only attempts where erection was achieved",3.458 min
same,"Duration of Erection, Mean","[1]; 4 mg apomorphine, sublingual, all attempts (zero minutes if no erection)",6.903 min
same,"Time to Erection, Kaplan-Meier Median",[1]; 4 mg apomorphine,36.00 min
same,"Time to Erection, Kaplan-Meier Estimation of Median Time to Erection (Treatment Means)",[1]; 4 mg apomorphine,12.61 min
same,"Duration of Erection, Mean","[1]; 4 mg apomorphine, only attempts where erection was achieved",12.49 min
same,"Duration of Erection, Difference in Means",[1]; 6 mg apomorphine vs placebo,5.138 min
same,"Duration of Erection, Difference in Mean","[1]; 6 mg apomorphine vs placebo, only attempts where erection was achieved",4.925 min
same,"Duration of Erection, Difference in Mean","[1]; 6 mg apomorphine vs placebo, only attempts where erection was achieved, listed as apomorphine",~5 min
same,"Duration of Erection, Mean","[1]; 6 mg apomorphine, sublingual, all attempts (zero minutes if no erection)",8.393 min
same,"Time to Erection, Kaplan-Meier Median",[1]; 6 mg apomorphine,31.33 min
same,"Time to Erection, Kaplan-Meier Estimation of Median Time to Erection (Treatment Means)",[1]; 6 mg apomorphine,12.82 min
same,"Duration of Erection, Mean","[1]; 6 mg apomorphine, only attempts where erection was achieved",13.96 min
same,difference in median time-to-erection between drug and placebo,[1]; attempts successful in achieving an erection,no statistically significant difference
same,effect on duration of erection compared to placebo,"[1]; doses tested (2, 4, 6 mg)",significant increase in the duration of erection
same,behaviors associated with sexual arousal,[2],"exhibited lordosis, genital grooming and other behaviors typically associated with sexual arousal"
same,fraction of maximum blood serum levels reached,[3]; 12 minutes following buccal administration,one-fifth to one-fourth
same,plasma apomorphine levels sufficient to cause a therapeutic effect,"[3]; interpolation of plasma curves for 2, 4, 6 mg up to about 20 minutes after administration",less than 0.25 ng/mL
same,time to maximum plasma concentrations,[3]; sub-lingual administration (formulation used in Tables 1-4),about 60 minutes

# Reference: US6403605B1, “Methods for the normalization of sexual response and amelioration of long term genital tissue degradation” (Queen's University at Kingston, priority 1998, dated 2002)
